{
  "source": "patent US20220267349A1",
  "about": "“HETEROCYCLIC COMPOUNDS” (Hoffmann-La Roche Inc., priority 2019, published 2022)",
  "data": [
    {"molecular_target": "T1, MAGL (Homo sapiens, UniProt Q99685)", "T1 sequence (Q99685 1-303)": "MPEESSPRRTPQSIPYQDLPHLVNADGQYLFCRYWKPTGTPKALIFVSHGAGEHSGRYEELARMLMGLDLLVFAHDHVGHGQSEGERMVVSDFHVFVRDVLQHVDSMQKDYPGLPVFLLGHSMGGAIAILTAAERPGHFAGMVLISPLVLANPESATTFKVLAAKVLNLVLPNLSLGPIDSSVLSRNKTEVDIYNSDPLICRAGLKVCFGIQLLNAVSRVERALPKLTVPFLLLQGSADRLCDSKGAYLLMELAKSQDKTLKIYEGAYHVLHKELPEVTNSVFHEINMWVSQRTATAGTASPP", "experiment": "2-AG assay (MAGL inhibitory activity, hydrolysis of 2-arachidonoylglycerol followed by mass spectrometry)", "type": "biochemical", "details": "50 pM MAGL, 8 μM 2-arachidonoylglycerol, 15 min preincubation, 30 min incubation at RT", "procedure": "Compounds were profiled for MAGL inhibitory activity by determining the enzymatic activity by following the hydrolysis of the natural substrate 2-arachidonoylglycerol resulting in arachidonic acid, which can be followed by mass spectrometry. This assay is hereinafter abbreviated “2-AG assay”.\nThe 2-AG assay was carried out in 384 well assay plates (PP, Greiner Cat #784201) in a total volume of 20 μL. Compound dilutions were made in 100% DMSO (VWR Chemicals 23500.297) in a polypropylene plate in 3-fold dilution steps to give a final concentration range in the assay from 12.5 μM to 0.8 pM. 0.25 μL compound dilutions (100% DMSO) were added to 9 μL MAGL in assay buffer (50 mM TRIS (GIBCO, 15567-027), 1 mM EDTA (Fluka, 03690-100 ml), 0.01% (v/v) Tween. After shaking, the plate was incubated for 15 min at RT. To start the reaction, 10 μL 2-arachidonoylglycerol in assay buffer was added. The final concentrations in the assay was 50 pM MAGL and 8 μM 2-arachidonoylglyerol. After shaking and 30 min incubation at RT, the reaction was quenched by the addition of 40 μL of acetonitrile containing 4 μM of d8-arachidonic acid. The amount of arachidonic acid was traced by an online SPE system (Agilent Rapidfire) coupled to a triple quadrupole mass spectrometer (Agilent 6460). A C18 SPE cartridge (G9205A) was used in an acetonitrile/water liquid setup. The mass spectrometer was operated in negative electrospray mode following the mass transitions 303.1→259.1 for arachidonic acid and 311.1→267.0 for d8-arachidonic acid. The activity of the compounds was calculated based on the ratio of intensities [arachidonic acid/d8-arachidonic acid].", "units": {"IC50": "nM"}, "values": [
      {"compound": "O=C1COC2=C(CN(C(=O)N3CCC(Cc4ccc(C(F)(F)F)cc4)CC3)CC2)N1", "note": "[Example 7, 6-[4-[[4-(Trifluoromethyl)phenyl]methyl]piperidine-1-carbonyl]-4,5,7,8-tetrahydropyrido[4,3-b][1,4]oxazin-3-one]", "IC50": 51.8},
      {"compound": "C[C@H]1CN(C(=O)N2CC(OCc3ccc(C(F)(F)F)cc3F)C2)C[C@H]2NC(=O)CO[C@@H]12", "note": "(relative stereo) [Example 1, rel-(4aR,8S,8aS)-6-[3-[[2-Fluoro-4-(trifluoromethyl)phenyl]methoxy]azetidine-1-carbonyl]-8-methyl-4,4a,5,7,8,8a-hexahydropyrido[4,3-b][1,4]oxazin-3-one]", "IC50": 4.4},
      {"compound": "O=C(N1CCc2ccc(=O)[nH]c2C1)N1CC(OCc2ccc(C(F)(F)F)cc2F)C1", "note": "[Example 9, 7-[3-[[2-Fluoro-4-(trifluoromethyl)phenyl]methoxy]azetidine-1-carbonyl]-1,5,6,8-tetrahydro-1,7-naphthyridin-2-one]", "IC50": 14.3},
      {"compound": "O=C1CN[C@@H]2CCN(C(=O)N3CC(OCc4ccc(C(F)(F)F)cc4F)C3)C[C@@H]2N1", "note": "(single isomer, unassigned) [Example 14, (4aS,8aR)- or (4aS,8aR)-6-[3-[[2-Fluoro-4-(trifluoromethyl)phenyl]methoxy]azetidine-1-carbonyl]-1,2,4,4a,5,7,8,8a-octahydropyrido[3,4-b]pyrazin-3-one]", "IC50": 1430},
      {"compound": "O=C1CSC2=C(CN(C(=O)N3CC(OCc4ccc(C(F)(F)F)cc4F)C3)CC2)N1", "note": "[Example 17, 6-[3-[[2-fluoro-4-(trifluoromethyl)phenyl]methoxy]azetidine-1-carbonyl]-4,5,7,8-tetrahydropyrido[4,3-b][1,4]thiazin-3-one]", "IC50": 48.3},
      {"compound": "O=C1CO[C@H]2CCN(C(=O)N3CC(OCc4ccc(C(F)(F)F)cc4F)C3)C[C@@]2(O)N1", "note": "[Example 16, (4aS,8aS)-6-[3-[[2-fluoro-4-(trifluoromethyl)phenyl]methoxy]azetidine-1-carbonyl]-4a-hydroxy-5,7,8,8a-tetrahydro-4H-pyrido[4,3-b][1,4]oxazin-3-one]", "IC50": 791},
      {"compound": "O=C1CC[C@H]2CCN(C(=O)N3CC(OCc4ccc(C(F)(F)F)cc4F)C3)C[C@H]2N1", "note": "(racemic) [Example 11, rac-(4aS,8aS)-7-[3-[[2-Fluoro-4-(trifluoromethyl)phenyl]methoxy]azetidine-1-carbonyl]-1,3,4,4a,5,6,8,8a-octahydro-1,7-naphthyridin-2-one]", "IC50": 3.1},
      {"compound": "O=C(N1CCC(C(c2ccccc2)c2ccccc2)CC1)N1CCc2ccc(=O)[nH]c2C1", "note": "[Example 8, 7-(4-Benzhydrylpiperidine-1-carbonyl)-1,5,6,8-tetrahydro-1,7-naphthyridin-2-one]", "IC50": 3},
      {"compound": "O=C1CO[C@H]2[C@H](CN(C(=O)N3CC(OCc4ccc(C(F)(F)F)cc4F)C3)CC2(F)F)N1", "note": "(single isomer, unassigned) [Example 3]", "IC50": 11.1},
      {"compound": "O=C1CC(O)[C@H]2CCN(C(=O)N3CC(OCc4ccc(C(F)(F)F)cc4F)C3)C[C@H]2N1", "note": "(mixture of isomers) [Example 18, rac-(4aS,8aS)-7-[3-[[2-fluoro-4-(trifluoromethyl)phenyl]methoxy]azetidine-1-carbonyl]-4-hydroxy-1,3,4,4a,5,6,8,8a-octahydro-1,7-naphthyridin-2-one]", "IC50": 1100},
      {"compound": "O=C1CN[C@H]2CCN(C(=O)N3CC(OCc4ccc(C(F)(F)F)cc4F)C3)C[C@H]2N1", "note": "(racemic) [Example 12, rac-(4aR,8aS)-6-[3-[[2-Fluoro-4-(trifluoromethyl)phenyl]methoxy]azetidine-1-carbonyl]-1,2,4,4a,5,7,8,8a-octahydropyrido[3,4-b]pyrazin-3-one]", "IC50": 72.8},
      {"compound": "O=C1CO[C@@H]2[C@@H](CN(C(=O)N3CC(OCc4ccc(C(F)(F)F)cc4F)C3)CC2(F)F)N1", "note": "(single isomer, unassigned) [Example 4]", "IC50": 1370},
      {"compound": "O=C1CN[C@H]2CCN(C(=O)N3CC(OCc4ccc(C(F)(F)F)cc4F)C3)C[C@H]2N1", "note": "(single isomer, unassigned) [Example 13, (4aR,8aS)- or (4aR,8aS)-6-[3-[[2-Fluoro-4-(trifluoromethyl)phenyl]methoxy]azetidine-1-carbonyl]-1,2,4,4a,5,7,8,8a-octahydropyrido[3,4-b]pyrazin-3-one]", "IC50": 159},
      {"compound": "O=C1CO[C@H]2[C@H](CN(C(=O)N3CC(c4ccc(CC(F)(F)F)cc4)C3)CC2(F)F)N1", "note": "(single isomer, unassigned) [Example 5]", "IC50": 2.6},
      {"compound": "CC1CN(C(=O)N2CC(OCc3ccc(C(F)(F)F)cc3F)C2)CC2NC(=O)COC12", "note": "[Example 2, rel-(4aS,8R,8aR)-6-[3-[[2-Fluoro-4-(trifluoromethyl)phenyl]methoxy]azetidine-1-carbonyl]-8-methyl-4,4a,5,7,8,8a-hexahydropyrido[4,3-b][1,4]oxazin-3-one]", "IC50": 118},
      {"compound": "O=C1CC[C@H]2CCN(C(=O)N3CCC(C(c4ccccc4)c4ccccc4)CC3)C[C@H]2N1", "note": "(racemic) [Example 10, rac-(4aS,8aS)-7-(4-Benzhydrylpiperidine-1-carbonyl)octahydro-1,7-naphthyridin-2(1H)-one]", "IC50": 0.06},
      {"compound": "O=C1CO[C@@H]2[C@@H](CN(C(=O)N3CC(c4ccc(CC(F)(F)F)cc4)C3)CC2(F)F)N1", "note": "(single isomer, unassigned) [Example 6]", "IC50": 649}
    ]}
  ]
}
